In US9334487B2, “Methods for diagnosing rheumatoid arthritis” (Imperial Innovations Limited, priority 2007, dated 2016):
“Also recorded” adds a separate entry of the source. Bridges are numbered along the chain shown (N, C = ends). Where no end group is shown, it is not given here. [ ]: non-standard residue; d: D form. Cit = NC(=O)NCCC[C@H](N)C(=O)O

What was measured:
[1] = tested on: serum IgG of RA patients, disease controls and healthy controls; test: ELISA for IgG antibodies to cyclic α-enolase peptides, UK cohort sera; format: binding, human; conditions: for IgG antibody levels / reactivity (OD450) in RA sera / sensitivity for RA: 102 RA patients; for IgG antibody levels / reactivity (OD450) in RA sera: OD450 (peptide)-OD450 (background); for sensitivity for RA / % positive, Disease controls (n = 110) / % positive, Healthy controls (n = 92): UK cohort; for % positive, Disease controls (n = 110) / % positive, Healthy controls (n = 92) / % positive, RA (n = 102): cut-off OD450 = 0.1; for % positive, RA (n = 102): UK cohort RA sera
Text: (§1) Serum samples were obtained with informed consent and ethical approval from 102 patients with RA and 92 (or 110 patients for the results generally shown in FIGS. 9 to 16) patients with other arthritidies (including systemic lupus erythematosus (n=32), Sjogrens syndrome (n=31), psoriatic arthritis (n=5), Behçet's syndrome (n=18; FIGS. 9 to 16) and miscellaneous other rheumatic diseases (n=24). 92 control serum samples were obtained from healthy volunteers. An additional cohort of 24 patients with RA undergoing treatment with either methotrexate (MTX) alone (n=13) or methotrexate in combination with Infliximab (INF) (n=11) were collected before treatment as well as 6, 18 and 52 weeks post treatment. Disease activity score (DAS 28), erythrocyte sedimentation rate (ESR) and C-reactive protein (CRP) were measured for each patient at the same time points, i.e. 0, 6, 18 an 52 weeks post treatment. All patients attended the Rheumatology Clinic at Charing Cross Hospital, London. An independent cohort from the US included serum samples from 81 RA patients, taken at baseline in a clinical trial at the Omaha Veterans Affairs Medical Centre, University of Nebraska, USA, and 82 serum samples from healthy volunteers. All RA patients met the American College of Rheumatology (ACR) classification criteria (43).
Fifteen cyclic 15 to 23-mer peptides were synthesised at Cambridge Research Biochemicals (Cleveland, UK). The peptide sequences corresponded to amino acid sequences in human α-enolase (SwissProt accession number P06733) or P. gingivalis enolase (SwissProt accession number AAQ66821), with the addition of cysteine residues at the amino- and carboxy-termini and the exchange of citrulline for arginine residues at certain positions, as shown in Tablet and Table 2 below.
(§2) 96-well plates (Maxisorp; Nunc, Roskilde, Denmark) were coated with α-enolase peptides at 10 μg/ml (diluted in a 50 mM carbonate buffer, pH 9.6), or with carbonate buffer alone, and incubated over night at 4° C. Wells were washed with PBS-Tween (0.05%) and blocked with 2% BSA (diluted in PBS) for 3 hours at room temperature. Sera were diluted 1:50 in RIA-buffer (10 mM Tris, 1% BSA, 350 mM NaCl, 1% Triton-X, 0.5% Na-deoxychlate, 0.1% SDS) supplemented with 10% FCS, added in duplicates and incubated for 1.5 hour at room temperature. Plates were washed as described above and incubated with peroxidase-conjugated mouse anti-human IgG (Hybridoma Reagent Laboratory, Baltimore, USA) (diluted 1:1000 in RIA-buffer, 10% FCS) for 1 hour at room temperature. After a final wash (PBS-Tween, 0.05%), bound antibodies were detected with TMB substrate (KPL, Maryland, USA). The reaction was stopped by the addition of 1M H2SO4 and absorbance measured at 450 nm in a Multiscan Ascent microplate reader (Thermo Labsystems). A control serum was included on all plates to correct for plate-to-plate variation. Background OD450 (wells coated with only carbonate buffer) was subtracted from peptide OD450 for every serum tested. Values above 0.1 were taken as positive. ELISA on the US serum samples were performed in a similar manner, but with 2% BSA in carbonate buffer as background, and with an OD cut-off of 0.2 for positive samples. Anti-CCP antibody status was analysed using the CCP2 kit (Eurodiagnostica, Malmo, Sweden), according to the manufacturer's instructions.

[2] = tested on: anti-CEP-1 antibodies in anti-CEP-1 positive RA sera; test: Liquid phase inhibition of binding to CEP-1-coated plates; set-up: species or system human; conditions: six anti-CEP-1 positive RA sera pre-incubated with 0, 1, 10 and 100 μg/ml peptide
Procedure: Inhibition experiments were performed in liquid phase on six anti-CEP-1 positive RA serum samples or on solid phase using serum from nine double positive (anti-CEP-1 and CCP positive) RA patients. Sera were either pre-incubated for 2 hours in RIA-buffer containing increasing concentrations (0, 1, 10 and 100 μg/ml) of CEP-1, control peptide 1D, peptide 4, peptide 7, peptide 9 or peptide 11, or pre-absorbed on plates coated with CEP-1, carbonate buffer alone or pre-absorbed on commercial CCP2 plates. To eliminate antigen-antibody complexes, the liquid phase mixtures were centrifuged at 13 000 rpm, for 15 minutes, before the supernatants were transferred to CEP-1-coated plates and assessed as described above Inhibition of binding to CEP-1, for serum samples pre-absorbed to CCP, was calculated in relation to the maximum inhibition, which by definition was set to 100% for samples pre-incubated with CEP-1.

[3] = tested on: serum IgG of RA patients and healthy controls (US cohort); test: anti-CEP-1 antibody ELISA, independent US cohort; format: binding, human; conditions: cut-off 98th percentile of controls
Text: as §1
as §2, with “ELISA on the US serum samples were performed in a similar manner, but with 2% BSA in carbonate buffer as background, and with an OD cut-off of 0.2 for positive samples.” left out, “instructions. […]” for “instructions.”

| Substance | % positive, Disease controls (n = 110) [1] | % positive, Healthy controls (n = 92) [1] | inhibition of antibody binding to CEP-1-coated plates [2] | % positive, RA (n = 102) [1] | other results |
| --- | --- | --- | --- | --- | --- |
| ckiha-R-eifds-R-gnptvec (CKIHAREIFDSRGNPTVEC; listed as Homo sapiens) [Peptide 1D, arginine containing control peptide, aa 5-21] | 2% | 3% | did not result in decreased antibody binding; also recorded: no inhibition | – | IgG antibody levels / reactivity (OD450) in RA sera [1]: low IgG-levels; also recorded: low reactivity; IgG antibody levels / reactivity (OD450) in RA sera ([1]; listed as arginine-containing control peptide): low degree of reactivity; IgG antibody levels / reactivity (OD450) in RA sera ([1]; listed as peptide 1D): low IgG-levels; sensitivity for RA [1]: about 4.9% |
| ckfag-X-nf-X-nplakc (CKFAG[Cit]NF[Cit]NPLAKC; disulfide 1-15 (inferred); listed as Homo sapiens) [Peptide 9, human α-enolase aa 422-434] | 1% | 1% | no inhibition | 15% | inhibition of antibody binding to CEP-1-coated plates ([2]; listed as peptide 9): did not result in decreased antibody binding |
| ckiha-X-eifds-R-gnptvec (CKIHA[Cit]EIFDSRGNPTVEC; disulfide 1-19 (inferred); listed as Homo sapiens) [Peptide 1C] | – | – | – | 20% | sensitivity for RA [1]: about 20% |
| ckiha-R-eifds-X-gnptvec (CKIHAREIFDS[Cit]GNPTVEC; disulfide 1-19 (inferred); listed as Homo sapiens) [Peptide 1B] | – | – | – | 40% | IgG antibody levels / reactivity (OD450) in RA sera [1]: higher antibody levels; sensitivity for RA [1]: higher sensitivity |
| cakynqll-X-ieeelgskac (CAKYNQLL[Cit]IEEELGSKAC; disulfide 1-19 (inferred); listed as Homo sapiens) [Peptide 8, human α-enolase aa 405-421] | 4% | 0% | – | 7% | – |
| ckiig-X-eilds-X-gnptvec (CKIIG[Cit]EILDS[Cit]GNPTVEC; disulfide 1-19 (inferred); listed as Homo sapiens) [1A P. gingivalis, P. gingivalis enolase version of CEP-1, X = citrulline] | – | – | – | 34% | % healthy controls positive, US cohort (n=82) [3]: 2% |
| ciqvvgddltvtnpk-X-iakac (CIQVVGDDLTVTNPK[Cit]IAKAC; disulfide 1-21 (inferred); listed as Homo sapiens) [Peptide 10, human α-enolase aa 313-331] | – | 1% | – | 6% | – |
| cekgvply-X-hiadlagnsec (CEKGVPLY[Cit]HIADLAGNSEC; disulfide 1-20 (inferred); listed as Homo sapiens) [Peptide 4, human α-enolase aa 125-142] | 2% | 2% | no inhibition | 16% | inhibition of antibody binding to CEP-1-coated plates ([2]; listed as peptide 4): did not result in decreased antibody binding |
| cnf-X-eam-X-igaevyhnlknc (CNF[Cit]EAM[Cit]IGAEVYHNLKNC; disulfide 1-20 (inferred); listed as Homo sapiens) [Peptide 5, human α-enolase aa 177-194] | 4% | 3% | – | 11% | – |
| cnpk-X-iakavnekscncllc (CNPK[Cit]IAKAVNEKSCNCLLC; also: cyclic via terminal Cys, bond and pairing not given here; listed as Homo sapiens) [Peptide 11, human α-enolase aa 324-341] | – | 0% | no inhibition | 18% | inhibition of antibody binding to CEP-1-coated plates ([2]; listed as peptide 11): did not result in decreased antibody binding |
| cyealel-X-dndkt-X-ymgkgvskc (CYEALEL[Cit]DNDKT[Cit]YMGKGVSKC; disulfide 1-23 (inferred); listed as Homo sapiens) [Peptide 3, human α-enolase aa 44-64] | 2% | 0% | – | 15% | – |
| cvdlftskglf-X-aavpsgc (CVDLFTSKGLF[Cit]AAVPSGC; disulfide 1-19 (inferred); listed as Homo sapiens) [Peptide 2, human α-enolase aa 22-38] | 0% | 2% | – | 10% | – |
